Results published in US4400394A, “Benzylidene derivatives” (priority 1975, dated 1983).

How the values were obtained:
[1] = Acute toxicity in mice (LD 50, intraperitoneal); conditions: mouse, in vivo, ip, CD1 mice, deaths recorded 48 hours after administration, determined graphically
Method: I. Acute toxicity in mice
The compounds of the invention and the reference substances were administered intraperitoneally to CD1 mice. The 50% lethal dose (LD 50) was determined graphically. The number of dead animals 48 hours after intraperitoneal administration was recorded.

[2] = system: convulsions induced by bicuculline in mice; test: Antagonism to convulsions induced by bicuculline in mice (anti-bicuculline activity); format: in vivo; conditions: Mus musculus, ip, intraperitoneal, dose which protects 50% of the animals against the effect of bicuculline, read-out: Anti-bicuculline activity, AD 50 (intraperitoneal administration)
Method: II. GABA-animetic activity of the compounds (I)
The experimental method of Curtis, D. R., et al., Brain Res., 1971, 33, 57 and Perez de la Mora, N., Biochem. Pharmacol., 1973, 22, 2,635, was used.
The 50% active doses (AD 50), namely the doses which protect 50% of the animals against the effect of bicuculline, were evaluated for the substances studied.

[3] = oral or parenteral administration; cited from earlier work
[4] = system: epilepsy; conditions: cited from earlier work

Compound | LD50 at 48 h [1] [mg/kg] | ED50 [2] [mg/kg] | crossing of the blood-brain barrier (in words) [3] | side-effects (in words) ([4]; administration of GABA) | use in epilepsy (in words) ([4]; some cases of epilepsy, very large quantities needed)
O=C(O)CCCN=C(c1ccccc1)c1cc(Cl)ccc1O [75,005] | 350 | 120 |  |  | 
O=C(O)CCCCN=C(c1ccccc1)c1ccccc1O [75,006] | 700 | 250 |  |  | 
O=C(O)CCCN=C(c1ccccc1)c1cc(F)ccc1O [75,010, Sodium 4-N-(α-phenyl-5-fluoro-2-hydroxy-benzylidenyl)-amino-butyrate] | 600 | 125 |  |  | 
O=C(O)CCCN=C(c1cc(F)ccc1O)c1ccccc1F [75,017] | 525 | 175 |  |  | 
O=C(O)CCN=C(c1ccccc1)c1ccccc1O [75,019] | 830 | 425 |  |  | 
O=C(O)CCCN=C(c1cc(F)ccc1O)c1ccccc1Cl [75,027] | 375 | 125 |  |  | 
Cc1ccccc1C(=NCCCC(=O)O)c1cc(F)ccc1O [75,029] | 475 | 250 |  |  | 
NC(=O)CN=C(c1ccccc1)c1ccccc1O [75,037] | 1350 | 20 |  |  | 
O=C(O)CCCN=C(c1cccc(F)c1)c1cc(F)ccc1O [75,044, Sodium 4-N-[α-(3-fluorophenyl)-5-fluoro-2-hydroxy-benzylidenyl]-amino-butyrate] | 850 | 250 |  |  | 
O=C(O)CCCN=C(c1ccc(F)cc1)c1cc(F)ccc1O [75,045, Sodium 4-N-[α-(4-fluorophenyl)-5-fluoro-2-hydroxy-benzylidenyl]-amino-butyrate] | 650 | 125 |  |  | 
O=C(O)CCCN=C(c1ccccc1O)c1ccccc1F [75,046] | 675 | 225 |  |  | 
Cc1ccc(O)c(C(=NCCCC(=O)O)c2ccccc2F)c1 [75,053] | 600 | 125 |  |  | 
O=C(O)CCCCCCCCCCN=C(c1ccccc1)c1cc(F)ccc1O [75,054] | 300 | 130 |  |  | 
O=C(O)CCCCCN=C(c1ccccc1)c1cc(F)ccc1O [75,059] | 800 | 200 |  |  | 
O=C(O)CCCCCN=C(c1ccccc1)c1ccccc1O [75,074] | 750 | 300 |  |  | 
O=C(O)CCCCCCCCCCN=C(c1ccccc1)c1ccccc1O [75,075, Sodium 11-N-(α-phenyl-2-hydroxy-benzylidenyl)-amino-undecamoate] | 210 | 100 |  |  | 
O=C(O)CCCN=C(c1ccccc1O)c1ccccc1Cl [75,078] | 350 | 110 |  |  | 
NC(=O)CN=C(c1ccccc1)c1cc(F)ccc1O [75,083] | 650 | 175 |  |  | 
O=C(O)CCCCCCCN=C(c1ccccc1)c1ccccc1O [75,100] | 600 | 300 |  |  | 
O=C(O)CCCN=C(c1ccc(Cl)cc1)c1cc(F)ccc1O [75,102] | 500 | 65 |  |  | 
COc1ccc(C(=NCCCC(=O)O)c2ccccc2)c(O)c1 [75,107] | 950 | 450 |  |  | 

Compound | LD50 at 48 h [1] [mg/kg] | ED50 [2] [mg/kg] | crossing of the blood-brain barrier (in words) [3] | side-effects (in words) ([4]; administration of GABA) | use in epilepsy (in words) ([4]; some cases of epilepsy, very large quantities needed)
COc1ccc(C(=NCCCC(=O)O)c2ccc(Cl)cc2)c(O)c1 [75,118] | 525 | 225 |  |  | 
Cc1ccc(O)c(C(=NCCCC(=O)O)c2ccccc2Cl)c1 [75,136] | 350 | 110 |  |  | 
NC(=O)CCCN=C(c1ccc(F)cc1)c1cc(F)ccc1O [75,166] | > 2000 | 180 |  |  | 
NC(=O)CCCN=C(c1ccccc1)c1cc(F)ccc1O [75,167] | > 2000 | 100 |  |  | 
CCOC(=O)CCCNC(=O)CCCN=C(c1ccccc1)c1cc(F)ccc1O [75,168] | 975 | 500 |  |  | 
NC(=O)CCCN=C(c1ccc(Cl)cc1)c1cc(F)ccc1O [76,002, 4-[(4-Chlorophenyl)-5-fluoro-2-hydroxy-benzylidenyl]-amino-butyramide] | 900 | 65 |  |  | 
O=C(CCCN=C(c1ccccc1)c1cc(F)ccc1O)NC1CC1 [76,010] | 1250 | 250 |  |  | 
O=C(CCCN=C(c1ccccc1)c1cc(F)ccc1O)NC1CCCC1 [76,011] | > 2000 | 365 |  |  | 
O=C(CCCN=C(c1ccccc1)c1cc(F)ccc1O)Nc1ccccc1 [76,012] | > 2000 | 500 |  |  | 
O=C(CCCN=C(c1ccccc1)c1cc(F)ccc1O)NCc1ccccc1 [76,013] | > 2000 | 200 |  |  | 
CN(C)C(=O)CCCN=C(c1ccccc1)c1cc(F)ccc1O [76,022] | 1400 | 350 |  |  | 
CCCCN(CCCC)C(=O)CCCN=C(c1ccccc1)c1cc(F)ccc1O [76,023] | 1700 | 300 |  |  | 
O=C(CCCN=C(c1ccccc1)c1cc(F)ccc1O)NC1CCC1 [76,030] | > 2000 | 200 |  |  | 
CC(C)NC(=O)CCCN=C(c1ccccc1)c1cc(F)ccc1O [76,031] | > 2000 | 500 |  |  | 
CCCC(CCN=C(c1ccccc1)c1cc(F)ccc1O)C(=O)O (stereo not drawn) [76,085] | 340 | 170 |  |  | 
NC(=O)CCCN=C(c1cc(F)ccc1O)c1ccccc1Cl [76,086] | 235 | 50 |  |  | 
NC(=O)CCCN=C(c1cccc(Cl)c1)c1cc(F)ccc1O [76,091] | 600 | 300 |  |  | 
NCCCC(=O)O [GABA, γ-Aminobutyric acid] | > 4000 | > 4000 | does not easily cross the blood-brain barrier | substantial sideeffects (hypotension, bradycardia, and sedation) | used with success in some cases of epilepsy
NC(=O)CN1CCCC1=O [PIRACETAM, reference compound] | > 4000 | 500 |  |  | 
O=C(O)CCCN=C(c1ccccc1)c1ccccc1O [SL 74,227] | 975 | 500 |  |  | 
O=C(O)CCCCN=C(c1ccccc1)c1cc(F)ccc1O [SL 75,106] | 600 | 120 |  |  | 
